Literature values as cited in patent US20240156726A1, “MULTI-LAYER ORAL THIN FILM” (LTS LOHMANN THERAPIE-SYSTEME AG, priority 2021, published 2024).

Conditions: compared with (R)-ketamine

CNC1(c2ccccc2Cl)CCCCC1=O (racemic) [(S)-ketamine, (S)-(±)-2-(2-chlorophenyl)-2-(methylamino)cyclohexan-1-one]
analgesic and anaesthetic potency relative to the (R) form: approximately three times higher
